Tested on: PDE4
Experiment: Inhibition of PDE4 Activity (activity test according to Bauer and Schwabe adapted to microtitre plates)
Type: biochemical
Conditions: Inhibition of the PDE4 Activity; inhibitory concentration as -log IC50 (mol/l)

Row | Compound | -log IC50
1 | COc1ccc(-c2nc3ccc(C(=O)OCCN4CCOCC4)cc3o2)c2c1OC1(CCCC1)C2 [compound 9, 2-morpholin-4-ylethyl 2-(2,3-dihydro-7-methoxybenzofuran-2-spiro-1'-cyclopentan4-yl)-benzoxazole-6-carboxylate] | 6.90
2 | COc1ccc(-c2nc3cc(C(=O)O)ccc3[nH]2)c2c1OC1(CCCC1)C2 [compound 1, 2-(2,3-Dihydro-7-methoxybenzofuran-2-spiro-1'-cyclopentan-4-yl)benzimidazole-5-carboxylic acid] | 7.87
3 | COc1ccc(-c2nc3cc(C(N)=O)ccc3[nH]2)c2c1OC1(CCCC1)C2 [compound 2, 2-(2,3-Dihydro-7-methoxybenzofuran-2-spiro-1'-cyclopentan-4-yl)benzimidazole-5-carboxamide] | 7.69
4 | COc1ccc(-c2nc3ccc(C(=O)O)cc3o2)c2c1OC1(CCCC1)C2 [compound 8, 2-(2,3-Dihydro-7-methoxybenzofuran-2-spiro-1'-cyclopentan-4-yl)benzoxazole-6-carboxylic acid] | 8.21
5 | COc1ccc(-c2nc3ccc(C(N)=O)cc3o2)c2c1OC1(CCOCC1)C2 [compound 12, 2-(2,3-Dihydro-7-methoxybenzofuran-2-spiro-4'-tetrahydropyran-4-yl)benzoxazole-6-carboxamide] | 6.42

Now from value to compound:

Row | -log IC50 | Compound
6 | 6.85 | COc1ccc(-c2nc3ccc(C(=O)O)cc3o2)c2c1OC1(CCOCC1)C2 [compound 11, 2-(2,3-Dihydro-7-methoxybenzofuran-2-spiro-4'-tetrahydropyran-4-yl) benzoxazole-6-carboxylic acid]
7 | 7.05 | COc1ccc(-c2nc3cc(C(=O)O)ccc3o2)c2c1OC1(CCOCC1)C2 [compound 6, 2-(2,3-Dihydro-7-methoxybenzofuran-2-spiro-4'-tetrahydropyran-4-yl)benzoxazole-5-carboxylic acid]
8 | 7.65 | COc1ccc(-c2nc3cc(C(=O)O)ccc3o2)c2c1OC1(CCCC1)C2 [compound 3, 2-(2,3-Dihydro-7-methoxybenzofuran-2-spiro-1'-cyclopentan-4-yl)benzoxazole-5-carboxylic acid]
9 | 6.80 | COc1ccc(-c2nc3cc(C(N)=O)ccc3o2)c2c1OC1(CCOCC1)C2 [compound 7, 2-(2,3-Dihydro-7-methoxybenzofuran-2-spiro-4'-tetrahydropyran-4-yl)benzoxazole-5-carboxamide]
